Read-outs that look alike come from different tables or passages of the source.
Assays:
[1] = test system: tobacco into which bchH gene was introduced; experiment: Leaf piece chlorophyll test, tobacco into which bchH gene was introduced; assay type: in vivo; settings: 0.3 ppm, Table 4; for activity at 0.3 ppm: Nicotiana tabacum, 168 h, 7 days in light, treated vs untreated leaf pieces, read-out: Resistant level to test compound; for Total chlorophyll content treated-leaf: leaf pieces 7 days in light place
Experimental: Then, according to the method described in Manual for Gene Manipulation of Plant (by Hirofumi UCHIMIYA, Kodan-sha Scientific, 1992), the gene was introduced into tobacco. Agrobacterium strain bearing plasmid pBIBCH was cultured at 28° C. overnight in LB medium and then leaf pieces of tobacco cultured sterilely were dipped in the liquid culture medium. The leaf pieces were cultured at room temperature for 2 days in Murashige-Skoog medium (MS-medium, described in Murasige T. and Skoog F., Physiol. Plant. (1962) 15, p 473) containing 0.8% agar, 0.1 mg/liter naphthalene acetic acid and 1.0 mg/liter benzyl aminopurine. Then, the leaf pieces were washed with sterilized water and cultured for 7 days on MS medium containing 0.8% agar, 0.1 mg/liter naphthalene acetic acid, 1.0 mg/liter benzyl aminopurine and 500 μg/ml cefotaxime. The leaf pieces were transplanted onto MS medium containing 0.8% agar, 0.1 mg/liter naphthalene acetic acid, 1.0 mg/liter benzyl aminopurine, 500 μg/ml cefotaxime and 100 μg/ml kanamycin (hereinafter referred to as selective MS medium) and cultured on the medium continuously for 4months with transplanting the tobacco leaf pieces onto fresh selective MS medium every 1 month. During culture, stem-leaf differentiated shoots were appeared from the tobacco leaf pieces, these shoots were transplanted to MS medium containing 0.8% agar, 300 μg/ml cefotaxime and 50 μg/ml kanamycin to induce roots to obtain regenerated plants. The resultant regenerated plant was transplanted and cultured on MS medium 0.8% agar and 50 μg/ml kanamycin to obtain tobacco plant into which bchH gene was introduced. Similarly, tobacco leaf pieces were infected with Agrobacterium strain bearing pNO to obtain regenerated plant from the tobacco leaf pieces and tobacco plant (hereinafter referred to as control recombinant tobacco).
The tobacco leaves into which bchH gene was introduced and control recombinant tobacco leaves obtained in Example 5 were collected and each leaf was divided into the right and left equivalent pieces along the main vein, respectively. To one piece was applied an aqueous solution containing 0.3 ppm PPO inhibitory-type herbicidal compound of Structure 8, while, to the other piece was not applied the compound. These leaf pieces were placed on MS medium containing 0.8% agar and allowed to stand at room temperature for 7 days in light place. Then, each leaf piece was ground with pestle and mortar in 5 ml of 80% aqueous acetone solution to extract chlorophyll. The extract liquid was diluted with 80% aqueous acetone solution and the absorbance was measured at 750 nm, 663 nm and 645 nm to calculate total chlorophyll content according to the method described by Macknney G., J. Biol. Chem. (1941) 140, p 315. The results obtained from 4 clones of tobacco into which bchH gene was introduced (BCH1 to 4) and control recombinant tobacco is shown in Table 4. In the table, the resistant level to the herbicidal compound was represented by percentages of the total chlorophyll content of leaf pieces treated with herbicidal compound to that of untreated leaf pieces.
The tobacco clone into which bchH gene was introduced and control recombinant tobacco were also treated in the same manner with the solution containing PPO inhibitory-type herbicidal compound represented by the above Structure 3, 7, 10, 11, 13, 17, 23, 24, 25, 27, 28, 30 or 35, and the resistant level to each herbicidal compound was measured. In the table, the resistant levels to the herbicidal compound were represented by percentages of the total chlorophyll content of leaf pieces treated with the herbicidal compound to that of untreated leaf pieces.

[2] = test system: E. coli BT3/pACYCSP+pTVCRP strain; experiment: Growth of E. coli BT3/pACYCSP+pTVCRP (variant Chlamydomonas reinhardtii PPO) with herbicidal compound; assay type: cell-based, Escherichia coli; settings: 18 hours culture, Table 9
Text: According to the description of Gibson, L. C. D. et al., Proc. Natl. Acad. Sci. USA, 92; p 1941 (1995), the DNA fragment containing bchH gene prepared in Example 1 was digested with the restriction enzymes NdeI and BglII. The resultant DNA fragment was inserted between NdeI restriction site and BamHI restriction site of expression vector pET11a (manufactured by Stratagene) to obtain plasmid pETBCH (FIG. 1). This plasmid pETBCH was introduced into E. coli BL21(DE3) strain competent cells (manufactured by Stratagene) according to the manual attached to the competent cells to obtain E. coli BL21(DE3)/pETBCH strain. The strain was inoculated into 1.5 ml LB liquid culture medium (1% tryptone, 0.5% yeast extract, 0.5% NaCl) containing 100 μg/ml ampicillin in a tube (14×10 mm), and the tube was covered with aluminum foil (hereinafter referred to as dark conditions), cultured with shaking at 37° C. under light of fluorescent lamp (about 8000 lux). When the absorbance at 600 nm of the liquid culture medium became about 0.6, isopropyl β-D-thiogalactopyranoside (IPTG) was added to the liquid culture medium so that the final concentration was 0.4 mM, and the culture was continued for about additional 20 hours. […] In contrast to this, when E. coli BL21(DE3)/pETBCH strain was cultured according to the same manner (with IPTG) except that the tube was not covered with aluminum foil (hereinafter referred to as light conditions), E. coli grew and turned red as above.
Plasmids pTVCRP and pTV118N prepared in Example 16 were introduced into E. coli BT3/pACYCSP strain prepared in Example 3 respectively according to the method described in Hanahan, D. J., Mol. Biol., 166; p 557 (1983). E. coli BT3/pACYCSP+pTVCRP strain bearing plasmids pACYCSP and pTVCRP, and E. coli BT3/pACYCSP+pTV118N strain bearing plasmids pACYCSP and pTV118N were obtained by culturing the above strains in YPT medium containing 100 μg/ml ampicillin, 15 μg/ml chloramphenicol and 10 μg/ml kanamycin.
These E. coli strains were inoculated into YPT medium containing 10 or 1 ppm of the PPO inhibitory-type herbicidal compound represented by Structure 8, 100 μg/ml ampicillin. 15 μg/ml chloramphenicol, 10 μg/ml kanamycin, 10 μg/ml hemin and 50 μg/ml aminolevulinic acid, cultured under dark conditions or light conditions in the same manner as in Example 2. Then, 18 hours after initiation of culture, the absorbance of liquid culture medium was measured at 600 nm. By taking the absorbance of the medium containing no herbicidal compound as 1, the relative value of the absorbance of the medium containing the herbicidal compound was calculated.

C#CCOc1cc(N2C(=O)C3=C(CCCC3)C2=O)c(F)cc1Cl [Structure 8]
activity at 0.3 ppm ([1]; clone BCH-1): 126% | activity at 0.3 ppm ([1]; clone BCH-2): 104% | activity at 0.3 ppm ([1]; clone BCH-3): 81.3% | activity at 0.3 ppm ([1]; clone BCH-4): 70.2% | Total chlorophyll content treated-leaf ([1]; clone BCH-1): 1.70 mg/g-fresh weight | Total chlorophyll content treated-leaf ([1]; clone BCH-2): 2.14 mg/g-fresh weight | Total chlorophyll content treated-leaf ([1]; clone BCH-3): 1.57 mg/g-fresh weight | Total chlorophyll content treated-leaf ([1]; clone BCH-4): 1.06 mg/g-fresh weight | Relative absorbance ([2]; in the dark, 1 ppm): 0.82 | Relative absorbance ([2]; in the dark, 10 ppm): 0.81 | Relative absorbance ([2]; in the light, 1 ppm): 0.42 | Relative absorbance ([2]; in the light, 10 ppm): 0.23
